According to PubChem BioAssay AID1745844 (Carcinogenic Potency Database (CPDB), 2022):
“And” between values parts separate entries of the source, which are not always exact repeats. Equal entries are not always repeated. The source made the active and inactive calls. How the calls were made is not given here.

Tested on: rodent lifetime carcinogenesis bioassay, tumor incidence TD50
Assay: chronic cancer bioassays in animals – CPDB, compiled studies (AID 1745844)

CN(CCCC(O)c1cccnc1)N=O (stereo not given)
TD50 (rat, strain Fischer 344, males, in drinking water, site: adrenal medulla, lesion: one or several types, types not named, dosed 112 weeks, study length 112 weeks): 1.39 mg/kg/day
TD50 (rat, strain Fischer 344, males, in drinking water, site: liver, lesion: hepatoma, dosed 112 weeks, study length 112 weeks): 5.86 mg/kg/day
TD50 (rat, strain Fischer 344, males, in drinking water, site: liver, lesion: several types, types named in the paper, dosed 112 weeks, study length 112 weeks): 7.25 mg/kg/day
TD50 (rat, strain Fischer 344, males, in drinking water, site: lung, lesion: adenocarcinoma, dosed 112 weeks, study length 112 weeks): 0.409 mg/kg/day
TD50 (rat, strain Fischer 344, males, in drinking water, site: lung, lesion: adenoma, dosed 112 weeks, study length 112 weeks): 1.38 mg/kg/day
TD50 (rat, strain Fischer 344, males, in drinking water, site: lung, lesion: adenosquamous carcinoma, dosed 112 weeks, study length 112 weeks): 0.577 mg/kg/day
TD50 (rat, strain Fischer 344, males, in drinking water, site: lung, lesion: several types, types named in the paper, dosed 112 weeks, study length 112 weeks): 0.103 mg/kg/day
TD50 (rat, strain Fischer 344, males, in drinking water, site: pancreas, exocrine, lesion: acinar-cell adenoma, dosed 112 weeks, study length 112 weeks): 2.14 mg/kg/day
TD50 (rat, strain Fischer 344, males, in drinking water, site: pancreas, exocrine, lesion: adenocarcinoma, acinar or ductal, dosed 112 weeks, study length 112 weeks): 1.09 mg/kg/day
TD50 (rat, strain Fischer 344, males, in drinking water, site: pancreas, exocrine, lesion: several types, types named in the paper, dosed 112 weeks, study length 112 weeks): 0.668 mg/kg/day

Cc1nc(N)cc2[nH]c3ccccc3c12
TD50 (mouse, strain CDF1, females, in feed, site: liver, lesion: hepatocellular carcinoma, dosed 88 weeks, study length 88 weeks): 6.81 mg/kg/day
TD50 (mouse, strain CDF1, males, in feed, site: liver, lesion: hepatocellular carcinoma, dosed 88 weeks, study length 88 weeks): 88.2 mg/kg/day
TD50 (mouse, strain CDF1, males, in feed, site: liver, lesion: several types, types named in the paper, dosed 88 weeks, study length 88 weeks): 83.2 mg/kg/day
TD50 (mouse, strain CDF1, males, in feed, site: lung, lesion: adenocarcinoma, dosed 88 weeks, study length 88 weeks): 81.1 mg/kg/day
TD50 (mouse, strain CDF1, males, in feed, site: lung, lesion: adenoma, dosed 88 weeks, study length 88 weeks): 224 mg/kg/day
TD50 (rat, strain ACI, females, in feed, site: ileum, lesion: adenoma, dosed 124 weeks, study length 124 weeks): 41.4 mg/kg/day
TD50 (rat, strain ACI, females, in feed, site: jejunum, lesion: adenocarcinoma, dosed 124 weeks, study length 124 weeks): 41.4 mg/kg/day
TD50 (rat, strain ACI, females, in feed, site: liver, lesion: hemangioendothelial sarcoma, dosed 124 weeks, study length 124 weeks): 41.4 mg/kg/day
TD50 (rat, strain ACI, females, in feed, site: liver, lesion: neoplastic nodule, dosed 124 weeks, study length 124 weeks): 4.43 mg/kg/day
TD50 (rat, strain ACI, females, in feed, site: liver, lesion: several types, types named in the paper, dosed 124 weeks, study length 124 weeks): 4.43 mg/kg/day
TD50 (rat, strain F344/DuCrj, females, in feed, site: all sites, lesion: malignant lymphoma, dosed 112 weeks, study length 112 weeks): 29 mg/kg/day
TD50 (rat, strain F344/DuCrj, females, in feed, site: clitoral gland, lesion: adenocarcinoma, dosed 112 weeks, study length 112 weeks): 75.5 mg/kg/day
TD50 (rat, strain F344/DuCrj, females, in feed, site: clitoral gland, lesion: adenoma, dosed 112 weeks, study length 112 weeks): 12.8 mg/kg/day
TD50 (rat, strain F344/DuCrj, females, in feed, site: clitoral gland, lesion: several types, types named in the paper, dosed 112 weeks, study length 112 weeks): 9.42 mg/kg/day
TD50 (rat, strain F344/DuCrj, females, in feed, site: liver, lesion: hepatocellular adenoma, dosed 112 weeks, study length 112 weeks): 74.3 mg/kg/day
TD50 (rat, strain F344/DuCrj, females, in feed, site: mammary gland, lesion: adenoma, dosed 112 weeks, study length 112 weeks): 76.2 mg/kg/day
TD50 (rat, strain F344/DuCrj, females, in feed, site: mammary gland, lesion: several types, types named in the paper, dosed 112 weeks, study length 112 weeks): 9.78 mg/kg/day and 11.5 mg/kg/day
TD50 (rat, strain F344/DuCrj, females, in feed, site: uterus, lesion: endometrial stromal polyp, dosed 112 weeks, study length 112 weeks): 3.6 mg/kg/day
TD50 (rat, strain F344/DuCrj, males, in feed, site: liver, lesion: hepatocellular adenoma, dosed 112 weeks, study length 112 weeks): 10.7 mg/kg/day
TD50 (rat, strain F344/DuCrj, males, in feed, site: mammary gland, lesion: several types, types named in the paper, dosed 112 weeks, study length 112 weeks): 8.43 mg/kg/day
TD50 (rat, strain F344/DuCrj, males, in feed, site: urinary bladder, lesion: several types, types named in the paper, dosed 112 weeks, study length 112 weeks): 9.72 mg/kg/day
TD50 (rat, strain F344/DuCrj, males, in feed, site: urinary bladder, lesion: transitional-cell carcinoma, dosed 112 weeks, study length 112 weeks): 59.9 mg/kg/day
TD50 (rat, strain F344/DuCrj, males, in feed, site: urinary bladder, lesion: transitional-cell papilloma, dosed 112 weeks, study length 112 weeks): 12.3 mg/kg/day

CCC[CH2][Sn]([CH2]CCC)([CH2]CCC)[O][Sn]([CH2]CCC)([CH2]CCC)[CH2]CCC
TD50 (rat, strain Wistar, females, in feed, site: adrenal medulla, lesion: pheochromocytoma, dosed 106 weeks, study length 106 weeks): 1.79 mg/kg/day
TD50 (rat, strain Wistar, females, in feed, site: pituitary gland, anterior, lesion: one or several types, types not named, dosed 106 weeks, study length 106 weeks): 3.73 mg/kg/day
TD50 (rat, strain Wistar, males, in feed, site: adrenal medulla, lesion: pheochromocytoma, dosed 106 weeks, study length 106 weeks): 1.93 mg/kg/day
TD50 (rat, strain Wistar, males, in feed, site: pituitary gland, anterior, lesion: one or several types, types not named, dosed 106 weeks, study length 106 weeks): 1.9 mg/kg/day

CCN(CC)CCOc1ccc(C(=C(Cl)c2ccccc2)c2ccccc2)cc1
TD50 (mouse, strain C57L/He x 129/Rr x C3HeB/De x SWR/Ly, females, by gavage, site: any site (literature study), lesion: several types, types named in the paper, dosed 69 weeks, study length 69 weeks): 3.62 mg/kg/day (inactive)
carcinogen call (mouse, strain C57L/He x 129/Rr x C3HeB/De x SWR/Ly, females, by gavage, site: any site (literature study), lesion: several types, types named in the paper, dosed 69 weeks, study length 82 weeks): negative (inactive)
TD50 (mouse, strain C57L/He x 129/Rr x C3HeB/De x SWR/Ly, females, by gavage, site: lung, lesion: one or several types, types not named, dosed 69 weeks, study length 69 weeks): 5 mg/kg/day (inactive)

CC(C)Oc1ccccc1OC(=O)N(C)N=O
TD50 (rat, strain Sprague-Dawley, males, by gavage, site: forestomach, lesion: carcinoma, dosed 31 weeks, study length 90 weeks): 0.434 mg/kg/day
TD50 (rat, strain Sprague-Dawley, males, by gavage, site: forestomach, lesion: one or several types, types not named, dosed 31 weeks, study length 90 weeks): 0.364 mg/kg/day

Cl
TD50 (rat, strain Fischer 344, males, in feed, site: adrenal medulla, lesion: pheochromocytoma, dosed 104 weeks, study length 104 weeks): 6210 mg/kg/day (inactive)
TD50 (rat, strain Fischer 344, males, in feed, site: mammary gland, lesion: fibroadenoma, dosed 104 weeks, study length 104 weeks): 33500 mg/kg/day (inactive)
carcinogen call (rat, strain Sprague-Dawley, males, inhaled, site: liver, lesion: hepatocellular carcinoma, dosed 128 weeks, study length 128 weeks): negative (inactive)
carcinogen call (rat, strain Sprague-Dawley, males, inhaled, site: nasal mucosa, lesion: one or several types, types not named, dosed 128 weeks, study length 128 weeks): negative (inactive)
TD50 (rat, strain Wistar-random, females, in feed, site: urinary bladder, lesion: transitional-cell papilloma, dosed 130 weeks, study length 130 weeks): 79500 mg/kg/day

CC(C)(C)NCC(O)c1ccc(O)c(CO)c1 (stereo not given)
TD50 (rat, strain Charles River CD (Sprague-Dawley), females, in feed, site: mesovarium, lesion: leiomyoma, dosed 80 weeks, study length 80 weeks): 36.3 mg/kg/day
TD50 (rat, strain Charles River CD (Sprague-Dawley), females, in feed, site: mesovarium, lesion: leiomyoma, dosed 104 weeks, study length 104 weeks): 44.6 mg/kg/day

c1ccc2c(c1)ccc1cc3c(ccc4ccccc43)cc12
TD50 (mouse, strain DBA/2, males, in drinking water, site: lung, lesion: alveolar-cell carcinoma, dosed 60 weeks, study length 60 weeks): 5.88 mg/kg/day
